{
  "source": "patent US8630703B2",
  "about": "“Treatment utilizing hydrophobic weak bases chemotherapeutic agents and illumination” (Technion Research & Development Foundation Limited, priority 2011, dated 2014)",
  "key": {"A549/K1.5 cells": {"test_system": "A549/K1.5 cells", "assay": "XTT cytotoxicity assay with and without illumination", "format": "cell-based, Human", "details": "A549/K1.5", "procedure": "Human non-small cell lung cancer A549 cells and their ABCG2-overexpressing MDR (multi-drug resistant) A549/K1.5 sub-line; ovarian carcinoma cell line 2008 and its stable MRP1-transfectant 2008/MRP1; and human non-small lung cancer cell line SW1573 and its ABCB1-overexpressing subline SW1573/2R160) were maintained in RPMI-1640 medium supplemented with 10% fetal bovine serum, 2 mM glutamine, 100 μg/ml penicillin and streptomycin (Biological Industries, Beth-Haemek, Israel) in a humid atmosphere containing 5% CO2 at 37° C.\n(§1) Parental cells and their MDR (multi-drug resistant) sub-lines were seeded in 96-well plates (2×10^4 cells/well in 90 μl growth medium/well). […] Following incubation for 2 hours, the drug-containing medium was replaced by drug-free medium. The cells were then placed on an illuminator plate (Model 460, thin line series, S&S X-Ray Products Inc., Brooklyn, N.Y.) for 1 hour, thereby achieving a light dose of 5 J/cm^2 white light. After illumination, plates were further incubated for an additional 24 hours.\n(§2) Cell viability was determined using an XTT (2,3-bis-(2-methoxy-4-nitro-5-sulfophenyl)-2H-tetrazolium-5-carboxanilide) Cell Proliferation Kit (Biological Industries). The drug concentrations required to inhibit cell growth by 50% (i.e., IC50 values) were determined from the cell survival curves in the absence and in the presence of illumination. Results are presented as mean values of at least three independent experiments."}, "[1]": {"test_system": "chicken chorioallantoic membrane (CAM) vasculature", "assay": "Chorioallantoic membrane (CAM) model of photodynamic therapy", "format": "in vivo", "details": "100 μg/embryo i.v.; 420 nm, 20 J/cm^2, 1 minute after injection; 24 hours after treatment", "protocol": "Fertilized chicken eggs (Animalco AG) were labeled and transferred into a hatching incubator with a relative air humidity of 65% and a temperature of 37° C. The incubator was equipped with an automatic fan (Savimat). On embryonic development day (EDD) 3, a hole of approximately 3 mm in diameter was opened in the eggshell above the air pouch of the egg and covered with Parafilm® wrapping film (Pechiney) to prevent dehydration and possible infections. The eggs were then returned to the incubator in a static position until use. On EDD 11, the hole in the shell was extended to a diameter of approximately 3 cm in order to provide better access to the chorioallantoic membrane (CAM) during experiments.\nEggs were placed under an Eclipse 600 FN epi-fluorescence microscope equipped with a Plan Apo 4/0.2, working distance 20 objective (Nikon). Microscopic observation and illumination of a region of the CAM was performed as described previously [Lim et al., Photochem Photobiol 2010, 86:397-402; Lim et al., J Med Chem 2010, 53:2865-2874; Nowak-Sliwinska et al., Angiogenesis 2010, 13:281-292]. Illumination was provided by a 100 W high pressure Hg-arc lamp. Light doses were adjusted with neutral density filters and measured with a calibrated Field-Master GS power meter (Coherent Inc.). Fluorescence images were acquired with an F-view II 12-bit monochrome Peltier-cooled digital CCD camera driven with analySIS DOCU software (Soft Imaging System GmbH).\nFor excitation and detection of imidazoacridinones (IAs) or sunitinib, the microscope was equipped with a filter set (Nikon) characterized by excitation wavelengths of 420±20 nm and emission wavelengths of >470 nm,\nAfter the treatment the eggs were numbered, covered and returned to the incubator. Each treatment group included 5 eggs.\nChorioallantoic membranes (CAMs) were intravenously injecting chorioallantoic membranes with 20 μl of a solution of FITC-dextran (20 kDa, 25 mg/ml). Fluorescence angiography was then performed using light from an Hg-arc lamp and light filters (Nikon) which provided excitation wavelengths of 470±20 nm and emission wavelengths of >520 nm for observing the fluorescence. In order to increase the quality of the recorded angiographs, a light absorber, in the form of India ink, was injected (30 μl) into the extra-embryonic cavity. The purpose of this second injection was to decrease the influence of the CAM auto-fluorescence background, which changes rapidly with time due to the embryo's movement. The India ink was filtered shortly before injection, using a sterile cellulose acetate membrane with 0.2 μm pores (Renner GmbH).\nPhotodynamic therapy (PDT) was performed at embryo development day (EDD) 11, at which stage the CAM is fully developed and contains a vessel network with a regular capillary plexus. The imidazoacridinones were intravenously injected into the main vessel of the CAM through a 33-gauge needle fitted to a 100 μl syringe (Hamilton), at a concentration of 1 mg/ml and a volume of 100 μl, which corresponds to a dose of 100 μg, or approximately 10 mg/kg embryo body weight.\nOne minute after injection, a region of the CAM which contained vessels of diameters in a range of 5 to 70 μm was illuminated (420±20 nm) at a light dose of 20 J/cm^2 and an irradiance of […]. […]\nThe illuminated area was 0.02 cm^2, as delimited by an optical diaphragm. The fluorescence of sunitinib was visible in the vasculature of the CAMs prior to PDT."}, "2008 cells": {"test_system": "2008 cells", "assay": "XTT cytotoxicity assay with and without illumination", "procedure": "as §1\n(§3) Cell viability was determined using an XTT (2,3-bis-(2-methoxy-4-nitro-5-sulfophenyl)-2H-tetrazolium-5-carboxanilide) Cell Proliferation Kit (Biological Industries). […] Results are presented as mean values of at least three independent experiments."}, "[2]": {"test_system": "human umbilical vein endothelial cells (HUVEC)", "assay": "Fluorescence microscopy of endothelial cells", "format": "cell-based", "details": "1 μM", "protocol": "Human umbilical vein endothelial cells (HUVEC) were isolated by perfusion of umbilical veins (Department of Obstetrics and Gynaecology, VU University Medical Center) with trypsin. Cells were routinely cultured in RPMI-1640 medium (Life Technologies, Breda, The Netherlands) supplemented with 10% heat-inactivated human serum, 10% heat-inactivated FCS, 2 mM L-glutamine (Life Technologies, Netherlands), […] streptomycin and 50 U/ml penicillin (ICN Biomedicals) in a 0.2% gelatin coated 75 cm^2 tissue culture flask at 37° C. in an atmosphere with 5% CO2. HUVEC used for experiments were cultured without addition of extra growth factors and used for experiments between passage 2 and 4.\nFreshly-isolated human umbilical vein endothelial cells (HUVEC), RF24 immortalized HUVEC cells, and human dermis derived endothelial cells (HMEC) were obtained and grown in vitro as described in the Materials and Methods section hereinabove. The cells were then seeded at 10^4 cells/well in a 24-well tissue culture plate. Twenty four hours after seeding, the cells were incubated for 1 hour with 10 or 1 μM of either C-1375, C-1379 or sunitinib. After this incubation, the cells in the 24-well plates were evaluated by fluorescence microscopy. […]"}, "SW1573 cells": {"test_system": "SW1573 cells", "assay": "XTT cytotoxicity assay with and without illumination", "procedure": "as §1, §3"}, "[3]": {"test_system": "human dermis derived endothelial cells (HMEC)", "assay": "Fluorescence microscopy of endothelial cells", "format": "cell-based", "details": "1 μM, blue light (420 nm)", "protocol": "Endothelial cell lines RF24 and HMEC, were provided by Dr. H. Pannekoek (CLB, Amsterdam, Netherlands) and Dr. D van der Schaft (Maastricht University), respectively.\nFreshly-isolated human umbilical vein endothelial cells (HUVEC), RF24 immortalized HUVEC cells, and human dermis derived endothelial cells (HMEC) were obtained and grown in vitro as described in the Materials and Methods section hereinabove. The cells were then seeded at 10^4 cells/well in a 24-well tissue culture plate. Twenty four hours after seeding, the cells were incubated for 1 hour with 10 or 1 μM of either C-1375, C-1379 or sunitinib. After this incubation, the cells in the 24-well plates were evaluated by fluorescence microscopy. For excitation and detection of imidazoacridinones (IAs) or sunitinib, the microscope was equipped with a filter set (Nikon) characterized by excitation wavelengths of 420±20 nm and emission wavelengths of >470 nm."}, "A549 cells": {"test_system": "A549 cells", "assay": "XTT cytotoxicity assay with and without illumination", "procedure": "as §1, §3"}, "2008/MRP1 cells": {"test_system": "2008/MRP1 cells", "assay": "XTT cytotoxicity assay with and without illumination", "procedure": "as §1, §3"}, "[4]": {"test_system": "MDR SW/2R160 and 2008/MRP1 cells", "assay": "XTT cytotoxicity, result stated jointly for MDR cells", "format": "cell-based", "procedure": "as §1, §2"}, "[5]": {"assay": "Absorption, emission and excitation spectra", "format": "physicochemical", "details": "aqueous 0.9% NaCl", "protocol": "Stock solutions containing sunitinib or the imidazoacridinones (IAs) C-1375 and C-1379 in 100% dimethyl sulfoxide were diluted with aqueous 0.9% NaCl solution under continuous stirring. Absorption spectra were recorded with a two-beam Cary 500 UV-VIS-NIR spectrophotometer (Varian) in 1 cm long Suprasil® quartz cuvettes (Hellma), at an average scan speed of 600 nm/minute, at 20° C. The steady state emission and excitation spectra were recorded with an LS 50B luminescence spectrometer (Perkin-Elmer)."}, "SW1573/2R160 cells": {"test_system": "SW1573/2R160 cells", "assay": "XTT cytotoxicity assay with and without illumination", "procedure": "Cells were grown in drug-free conditions for one week before any analysis.\nas §1, §3"}},
  "note": "Read-outs that look alike come from different tables or passages of the source.",
  "data": [
    {"smiles": "COc1ccc2c(c1)c(=O)c1c(NCCCN(C)C)ccc3nc(C)n2c31", "note": "[C-1375]", "values": [
      {"measurement": "Fold sensitization", "setting": "A549/K1.5 cells; control vs illumination", "result": 10},
      {"measurement": "LD50 Control", "setting": "A549/K1.5 cells; no illumination", "result": "5.264 ± 0.877", "unit": "µM"},
      {"measurement": "Survival at 3000 nM Control", "setting": "A549/K1.5 cells; no illumination", "result": "70 ± 5", "unit": "%"},
      {"measurement": "LD50 Illumination", "setting": "A549/K1.5 cells; white light 1 hour (5 J/cm^2)", "result": "541 ± 56", "unit": "nM"},
      {"measurement": "Survival at 3000 nM Illumination", "setting": "A549/K1.5 cells; white light illumination", "result": "3 ± 0.6", "unit": "%"},
      {"measurement": "vascular effect in illuminated area", "setting": "[1]", "result": "vaso-occlusion within the illuminated area"},
      {"measurement": "Fold sensitization", "setting": "2008 cells; control vs illumination", "result": 36},
      {"measurement": "C-1375 LD50 Illumination", "setting": "2008 cells; illumination", "result": "90 ± 9", "unit": "nM"},
      {"measurement": "Survival at 1000 nM Illumination", "setting": "2008 cells; illumination", "result": "11 ± 4", "unit": "%"},
      {"measurement": "C-1375 LD50 Control", "setting": "2008 cells; no illumination", "result": "3.28 ± 0.345", "unit": "µM"},
      {"measurement": "Survival at 1000 nM Control", "setting": "2008 cells; no illumination", "result": "72 ± 0.8", "unit": "%"},
      {"measurement": "photodestruction of lysosomes", "setting": "[2]; approximately 2 minutes of illumination", "result": "most of the lysosomes had disappeared"},
      {"measurement": "photodestruction of lysosomes", "setting": "[2]; illumination 1 minute (420 nm)", "result": "many lysosomes were destroyed"},
      {"measurement": "Fold sensitization", "setting": "SW1573 cells; control vs illumination", "result": 24},
      {"measurement": "C-1375 LD50 Illumination", "setting": "SW1573 cells; illumination", "result": "233 ± 5", "unit": "nM"},
      {"measurement": "Survival at 1000 nM Illumination", "setting": "SW1573 cells; illumination", "result": "11 ± 2", "unit": "%"},
      {"measurement": "C-1375 LD50 Control", "setting": "SW1573 cells; no illumination", "result": "5.535 ± 0.596", "unit": "µM"},
      {"measurement": "Survival at 1000 nM Control", "setting": "SW1573 cells; no illumination", "result": "68 ± 6", "unit": "%"},
      {"measurement": "photodestruction of lysosomes", "setting": "[3]", "result": "lysosome destruction and accumulation of C-1375 in the nuclei also occurred"},
      {"measurement": "Fold sensitization", "setting": "A549 cells; control vs illumination", "result": 14},
      {"measurement": "Survival at 3000 nM Control", "setting": "A549 cells; no illumination", "result": "50 ± 3", "unit": "%"},
      {"measurement": "LD50 Control", "setting": "A549 cells; no illumination, 2 h drug, XTT 24 h later", "result": "3.054 ± 0.26", "unit": "µM"},
      {"measurement": "LD50 Illumination", "setting": "A549 cells; white light 1 hour (5 J/cm^2)", "result": "212 ± 29", "unit": "nM"},
      {"measurement": "Survival at 3000 nM Illumination", "setting": "A549 cells; white light illumination", "result": "3 ± 2", "unit": "%"},
      {"measurement": "Fold sensitization", "setting": "2008/MRP1 cells; control vs illumination", "result": 51},
      {"measurement": "C-1375 LD50 Illumination", "setting": "2008/MRP1 cells; illumination", "result": "101 ± 0.1", "unit": "nM"},
      {"measurement": "Survival at 1000 nM Illumination", "setting": "2008/MRP1 cells; illumination", "result": "13 ± 3", "unit": "%"},
      {"measurement": "C-1375 LD50 Control", "setting": "2008/MRP1 cells; no illumination", "result": "5.115 ± 0.889", "unit": "µM"},
      {"measurement": "Survival at 1000 nM Control", "setting": "2008/MRP1 cells; no illumination", "result": "80 ± 2", "unit": "%"},
      {"measurement": "IC50", "setting": "[4]; illumination, read-out: IC50 with illumination", "result": "0.09 to 0.33", "unit": "µM"},
      {"measurement": "IC50", "setting": "[4]; no illumination, read-out: IC50 in the absence of illumination", "result": "3.3 to 5.5", "unit": "µM"},
      {"measurement": "Peak absorption", "setting": "[5]", "result": 444, "unit": "nm"},
      {"measurement": "Peak emission", "setting": "[5]", "result": 553, "unit": "nm"},
      {"measurement": "Peak excitation", "setting": "[5]", "result": 449, "unit": "nm"},
      {"measurement": "Fold sensitization", "setting": "SW1573/2R160 cells; control vs illumination", "result": 13},
      {"measurement": "C-1375 LD50 Illumination", "setting": "SW1573/2R160 cells; illumination", "result": "330 ± 56", "unit": "nM"},
      {"measurement": "Survival at 1000 nM Illumination", "setting": "SW1573/2R160 cells; illumination", "result": "24 ± 4", "unit": "%"},
      {"measurement": "C-1375 LD50 Control", "setting": "SW1573/2R160 cells; no illumination", "result": "4.384 ± 0.125", "unit": "µM"},
      {"measurement": "Survival at 1000 nM Control", "setting": "SW1573/2R160 cells; no illumination", "result": "74 ± 3", "unit": "%"}
    ]}
  ]
}
